Results: PMC10135378, “Synthesis of Novel N-Heterocyclic Carbene-Ruthenium (II) Complexes, “Precious” Tools with Antibacterial, Anticancer and Antioxidant Properties” (Antibiotics, 2023)

What was measured:
[1] = DPPH radical scavenging assay; settings: 30 min, room temperature, 517 nm
Procedure: Generally, the DPPH radical is able to accept hydrogen radicals or an electron, turning into a stable molecule. The interaction with Ru-NHC complexes induces the reduction of DPPH radical intensity measured at 517 nm, due to the conversion of the purple DPPH radical into its corresponding yellow hydrazine form.
The radical scavenging properties of Ru-NHC complexes on the 1,1-diphenyl-2-picryl-hydrazil (DPPH) radical were evaluated as described by Fazio et al., with minor corrections. Then, 20 μL of each Ru complex, properly dissolved in DMSO, were mixed with methanol DPPH 0.1 mM (180 μL) in a 48-well plate obtaining […] different concentrations (10, 50, 100, 200 and 300 µg/mL). Next, 20 μL of DMSO in 180 μL of DPPH methanol solution was diluted as the control. The mixture was vigorously shaken and incubated (room temperature, 30 min, in the dark). The scavenging activity was measured at 517 nm, using a microplate reader. DPPH radical scavenging was expressed as inhibition percentages (%IDPPH) for the Ru complexes compared to the initial concentration of DPPH (control) according to the formula: %IDPPH=A0−A/A0×100 where A0 is the absorbance at 517 nm of the control reaction and A is the absorbance at 517 nm in the presence of samples.
The obtained IDPPH percentages allowed the IC50 values determination, using GraphPad Prism 9 software (GraphPad Inc., San Diego, CA, USA). Trolox was employed as a positive control.

[2] = tested on: Staphylococcus aureus (ATCC 23235); experiment: MIC/MBC broth dilution, S. aureus; assay type: cell-based; settings: broth dilution, 37 °C, 18 h
Procedure: (§1) One Gram-negative (Escherichia coli (ATCC® 25922TM)) and two Gram-positive bacterial strains (Enterococcus faecalis (ATCC® 19433TM) and Staphylococcus aureus (ATCC® 23235TM)] were used for MIC and MBC values determination, according to CLSI guidelines. MIC represents the lowest concentration of compound inhibiting the visible microbial growth and expressed as μg/mL; MBC is the lowest concentration able to kill the bacteria. Both determinations were performed by the broth dilution method. Bacteria were grown overnight in LB medium (2%), then diluted to a density of […] colony forming units (CFUs) per mL, plated in sterile 96-well microplates, obtaining about 10^5 cells/ well. Increasing concentrations of the Ru-NHC complexes (1, 10, 25, 50, 70, 100 µg/mL) were used. After incubation at 37 °C for 18 h (overnight), bacterial growth was checked at a wavelength of 600 nm using a Multiskan spectrophotometer (model Multiskan Ex Microplate; Thermo Scientific, Nyon, Switzerland) and MIC or MBC values were determined, comparing cell density with a positive control (bacterial cells grown in LB medium were added with only the vehicle, DMSO). Each experiment was carried out five times, in triplicate. Ampicillin (Sigma Aldrich A9393) was used as the control for strain sensitivity.

[3] = tested on: MCF-10A cells; experiment: MTT assay, non-tumoral MCF-10A cells; assay type: cell-based, human; settings: 72 h exposure
Text: (§2) Additionally, we investigated the selectivity of all the synthesized Ru-NHC complexes on the cancer cells by studying their capability to interfere with the growth of two non-tumoral cells, namely the MCF-10A and BALB/3T3 cells.
(§3) The adopted cells (breast cancer MCF-7 and MDA-MB-231 and human mammary epithelial MCF-10A cells) were purchased from American Type Culture Collection (ATCC, Manassas, VA, USA) and cultured as indicated. The mouse embryonic fibroblast BALB/3T3 and neuroblastoma SH-SY5Y were also obtained from American Type Culture Collection (ATCC, Manassas, VA, USA) and cultured in DMEM high glucose supplemented with 100 U mL^−1 penicillin/streptomycin and 10% bovine calf serum (BCS) or 10% fetal bovine serum (FBS), respectively.
(§4) MTT assay (Sigma Aldrich (St. Louis, MO, USA)) was used for the in vitro anticancer activity evaluation, as previously reported. The Ru-NHC complexes were employed at different concentrations (0.1–1–10–25–50–100 μM) for 72 h. The IC50 values were calculated from the percent (%) of control using GraphPad Prism 9 (GraphPad Software, La Jolla, CA, USA).

[4] = tested on: BALB/3T3 cells; experiment: MTT assay, non-tumoral BALB/3T3 fibroblasts; assay type: cell-based; settings: 72 h exposure, non-tumoral mouse embryonic fibroblasts
Text: as §2, §3, §4

[5] = tested on: SH-SY5Y cells; experiment: MTT assay, anticancer activity on SH-SY5Y neuroblastoma cells; assay type: cell-based; settings: 72 h exposure, 0.1-100 µM
Procedure: (§5) The anticancer activity of all the synthesized Ru-NHC complexes (RANHC I-VI) was studied in two human breast cancer cell lines, namely the estrogen receptor positive (ER+) MCF-7 cells and the triple negative MDA-MB-231 cells (ER-, PR-, and HER-2/Neu not overexpressed), and neuroblastoma cells, i.e., SH-SY5Y. First, the cells were exposed for 72 h at different concentrations of the studied complexes (from 0.1 to 100 µM) and then their viability was checked by MTT assay.
as §3, §4

[6] = tested on: Escherichia coli (ATCC 25922); experiment: MIC/MBC broth dilution, E. coli; assay type: cell-based; settings: broth dilution, 37 °C, 18 h
Procedure: as §1

[7] = tested on: MCF-7 cells; experiment: MTT assay, anticancer activity on MCF-7 cells; assay type: cell-based, human; settings: 72 h exposure, 0.1-100 µM
Procedure: as §5, §3, §4

Structure (SMILES) | IC50 [1] | IC50 [5] | IC50 [7] | M.I.C. S. aureus [2] | IC50 [3] | IC50 [4] | M.I.C. E. coli [6]
COC(Cn1ccn(C)[c]1=[Ru]1[O]C(=O)C(=O)[O]1)c1ccccc1.Cc1ccc(C(C)C)cc1 (stereo not drawn) [RANHC-IV] | 512.3 ± 0.8 µM | 88.9 ± 0.9 µM | > 100 µM | 25 µg/mL | > 100 µM | > 100 µM | 50 µg/mL
COC(Cn1ccn(C)[c]1=[Ru]([Cl])[Cl])c1ccccc1.Cc1ccc(C(C)C)cc1 (stereo not drawn) [RANHC-I] | 369.6 ± 1.1 µM | 90 ± 1.2 µM | > 100 µM | 25 µg/mL | > 100 µM | > 100 µM | 50 µg/mL
COC(Cn1c(Cl)c(Cl)n(C)[c]1=[Ru]([Cl])[Cl])c1ccccc1.Cc1ccc(C(C)C)cc1 (stereo not drawn) [RANHC-V] | 246.2 ± 1.2 µM | 48.4 ± 0.8 µM | 26.1 ± 0.9 µM | 25 µg/mL | 79.5 ± 1.2 µM | > 100 µM | 50 µg/mL

The next compounds have a lower IC50 [1] than those just listed; values first:

IC50 [1] | IC50 [5] | IC50 [7] | Structure (SMILES) | M.I.C. S. aureus [2] | IC50 [3] | IC50 [4] | M.I.C. E. coli [6]
214.8 ± 1.1 µM | > 100 µM | > 100 µM | COC(Cn1ccn(C)[c]1=[Ru]([I])[I])c1ccccc1.Cc1ccc(C(C)C)cc1 (stereo not drawn) [RANHC-II] | 25 µg/mL | > 100 µM | > 100 µM | 50 µg/mL
161.6 ± 1 µM | 66.9 ± 0.8 µM | 54.8 ± 1.1 µM | COC(Cn1[c](=[Ru]([Cl])[Cl])n(C)c2ccccc21)c1ccccc1.Cc1ccc(C(C)C)cc1 (stereo not drawn) [RANHC-VI] | 25 µg/mL | 90.7 ± 1.2 µM | 39.1 ± 1.1 µM | 25 µg/mL
44.2 ± 1.2 µM | > 100 µM | > 100 µM | CN1C=CN2CC(c3ccccc3)[O+](C)[Ru]([Cl])=[C]12.Cc1ccc(C(C)C)cc1.F[P-](F)(F)(F)(F)F (stereo not drawn) [RANHC-III] | 25 µg/mL | > 100 µM | > 100 µM | 25 µg/mL
